# Reference: patent publication US7585877B2, “Aminophenyl derivatives as selective androgen receptor modulators” (Acadia Pharmaceuticals, Inc., priority 2005, dated 2009)
# Counter-ions that a name gives are not always drawn. Like-named read-outs stand apart in the source and are kept apart here.
# Experiments:
# Androgen AR receptor = target: T1, Androgen AR receptor (Homo sapiens, UniProt P10275); experiment: Receptor Selection and Amplification Technology (R-SAT) functional receptor assay; assay type: cell-based; details: for Emax: read-out: % Efficacy
# T1 construct: expressed in transfected cells; host or cells: NIH3T3 cells
# T1 sequence (P10275 1-920): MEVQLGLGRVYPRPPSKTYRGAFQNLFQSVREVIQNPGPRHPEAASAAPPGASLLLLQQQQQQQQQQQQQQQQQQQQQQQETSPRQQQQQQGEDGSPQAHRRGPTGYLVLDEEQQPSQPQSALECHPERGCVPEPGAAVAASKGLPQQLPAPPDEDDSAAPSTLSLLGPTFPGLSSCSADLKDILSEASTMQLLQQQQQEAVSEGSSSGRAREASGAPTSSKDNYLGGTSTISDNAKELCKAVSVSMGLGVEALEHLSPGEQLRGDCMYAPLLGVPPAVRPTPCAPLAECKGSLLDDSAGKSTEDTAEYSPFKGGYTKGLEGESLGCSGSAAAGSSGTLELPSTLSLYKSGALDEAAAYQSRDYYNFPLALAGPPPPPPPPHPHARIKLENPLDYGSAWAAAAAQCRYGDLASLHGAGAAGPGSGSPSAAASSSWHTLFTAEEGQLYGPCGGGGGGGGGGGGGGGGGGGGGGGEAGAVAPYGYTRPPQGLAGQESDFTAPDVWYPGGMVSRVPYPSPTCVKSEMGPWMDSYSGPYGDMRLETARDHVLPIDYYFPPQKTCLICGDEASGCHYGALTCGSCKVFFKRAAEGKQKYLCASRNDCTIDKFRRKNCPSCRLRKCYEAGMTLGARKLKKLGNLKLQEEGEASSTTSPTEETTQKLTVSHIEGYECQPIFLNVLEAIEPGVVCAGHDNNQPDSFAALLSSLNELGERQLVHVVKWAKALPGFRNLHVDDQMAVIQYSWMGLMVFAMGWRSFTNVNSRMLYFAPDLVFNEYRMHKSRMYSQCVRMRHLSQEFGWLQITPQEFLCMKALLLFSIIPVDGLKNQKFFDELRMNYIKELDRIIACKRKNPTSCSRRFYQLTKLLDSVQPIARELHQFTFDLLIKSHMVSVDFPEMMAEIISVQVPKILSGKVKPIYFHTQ
# Method: The functional receptor assay, Receptor Selection and Amplification Technology (R-SAT™), was used with minor modifications from the procedure described previously (Brann, M. R., U.S. Pat. No. 5,707,798, which is hereby incorporated herein by reference in its entirety) to screen compounds for efficacy at the Androgen AR receptor. Briefly, NIH3T3 cells were grown in roller bottles to 70-80% confluence. Cells were then transfected for 12-16 h with plasmid DNAs using Polyfect (Qiagen Inc.) as per the manufacturer's protocol. R-SAT assays were typically performed by transfecting 30 ug/bottle of receptor and 50 ug/bottle of β-galactosidase plasmid DNA. All receptor and helper constructs used were in mammalian expression vectors. Helpers are defined as signaling molecules that modulate both ligand-dependent and/or ligand-independent function of the AR receptor, typically co-activators.
# NIH3T3 cells were transfected for 12-16 h, then trypsinized and frozen in DMSO. Frozen cells were later thawed, plated at 10,000-40,000 cells per well of a 96 well plate containing drug. Cells were then grown in a humidified atmosphere with 5% ambient CO2 for five days. Media was then removed from the plates and marker gene activity was measured by the addition of the β-galactosidase substrate o-nitrophenyl β-D-galactopyranoside (ONPG, in PBS with 5% NP-40). The resulting colorimetric reaction was measured in a spectrophotometric plate reader (Titertek Inc.) at […]. All data were analyzed using the computer program XLFit (IDBSm).
# [1] = system: castrated male Sprague Dawley rats; experiment: In vivo activity in castrated rats: wet tissue weights; design: species or system rat
# Method: (§1) Test compounds of formula I are administered p.o. daily for two weeks to castrated male Sprague Dawley rats (n=3). The effects of the test compounds (1, 3, 10, 30 mg/kg) are compared to testosterone propionate (1 and 3 mg/kg s.c.; positive control) and vehicle (10% Tween80; negative control). Blood and wet weights of prostate gland and seminal vesicle are measured after sacrifice that occurs 24 hours after the last dose. Blood is collected in heparin collection tubes after sacrifice that occurred 24 hours after the last dose. Blood is centrifuged and plasma collected and plasma samples frozen.
# [2] = system: Rat luteinizing hormone (LH) plasma levels; experiment: In vivo activity in castrated rats: plasma luteinizing hormone (ELISA); details: castrated rats (FIG. 4)
# Method: as §1
# Rat luteinizing hormone (LH) plasma levels are determined using an enzyme linked immunoabsorbent assay (ELISA) from Amersham as per manufacturer's instructions. The solid phase assay is based on the competition between unlabeled rLH and a fixed quantity of biotin labelled rLH for a limited amount of rLH specific antibody. A conjugate streptavidin/peroxidase allows for signal amplification and detection in presence of the substrate.
# [3] = R-SAT, transfected NIH3T3 cells
structure (smiles),measurement,setting,value
"Cc1c(N2[C@@H]3CC[C@H]2C[C@@H](O)C3)ccc(C#N)c1Cl [165RL90, 2-Chloro-4-(3-endo-hydroxy-8-azabicyclo[3.2.1]octan-8-yl)-3-methylbenzonitrile, hydrochloride]",EC50,Androgen AR receptor,2 nM
same,Emax,Androgen AR receptor; [3],81%
"Cc1c(N2[C@@H]3CC[C@H]2C[C@@H](O)C3)ccc([N+](=O)[O-])c1Cl [173FBA73bL, endo-8-(3-chloro-2-methyl-4-nitrophenyl)-8-azabicyclo[3.2.1]octan-3-ol]",Emax,Androgen AR receptor; [3],80%
same,EC50,"Androgen AR receptor; R-SAT, transfected NIH3T3 cells, read-out: pEC50 (converted)",3.16 nM
"Cc1c(N2[C@@H]3CC[C@H]2C[C@@](C)(O)C3)ccc(C#N)c1Cl [198RL26, 2-Chloro-4-(3-endo-hydroxy-3-exo-methyl-8-azabicyclo[3.2.1]oct-8-yl)-3-methylbenzonitrile hydrochloride]",EC50,Androgen AR receptor,1.58 nM
same,Emax,Androgen AR receptor; [3],79%
same,"wet tissue weights (prostate, seminal vesicle, levator ani muscle)","[1]; 3 mg/kg daily s.c. (so in the source) for two weeks, castrated rats",did not appear to significantly alter wet tissue weights
same,dose relative to TP at which negative side effects (increased seminal vesicle and prostate size) become evident,"[1]; castrated rats, two weeks daily dosing",at least 100 × of TP
same,"wet tissue weights (prostate, seminal vesicle, levator ani muscle)","[1]; higher doses (3 and 10 mg/kg) daily, castrated rats","appeared to significantly increase wet tissue weights, however, not to the extent of TP"
same,plasma LH levels,[2]; 10 mg/kg p.o. for 14 days,complete reversal
same,plasma LH levels,"[2]; various doses, p.o. for 14 days",dose-dependent suppression of plasma LH levels
"CCC(=O)O[C@H]1CC[C@H]2[C@@H]3CCC4=CC(=O)CC[C@]4(C)[C@H]3CC[C@]12C [testosterone propionate, reference compound]",prostate wet tissue weight as compared to vehicle treatment,"[1]; 1 mg/kg daily s.c. for two weeks, castrated rats (FIG. 1)",significant increases
same,seminal vesicle wet tissue weight as compared to vehicle treatment,"[1]; 1 mg/kg daily s.c. for two weeks, castrated rats (FIG. 2)",significant increases
same,levator ani muscle wet tissue weight as compared to vehicle treatment,"[1]; 1 mg/kg daily s.c. for two weeks, castrated rats (FIG. 3)",significant increases
same,plasma LH levels,"[2]; 1 mg/kg, s.c. for 14 days",restored LH levels to those obtained in naive rats
